Assay results taken from patent US20250325529A1, “INHIBITORS OF FATTY ACID BINDING PROTEINS (FABPs), METHODS OF USE AND METHODS OF MAKING” (Celloram, inc., priority 2024, published 2025).

Assays:
[1] = tested on: Salmonella typhimurium tester strain TA98; assay: Ames test (Bacterial Reverse Mutation Test), TA98; type: cell-based
Method: (§1) PD152 (compound 2) was tested for genotoxic and cytotoxic side effects by Ames test. The Ames test is a Bacterial Reverse Mutation Test of mutagenicity that utilizes Salmonella typhimurium tester strains TA98, TA100, TA1535, TA1537 and Escherichia coli tester strain WP2 uvrA (pKM101), both in the presence and absence of S9.
(§2) The compound PD152 was tested at 10 concentrations (0.032-1000 μg/plate) in the presence of, or absence of, the hepatic enzyme S9.
(§3) The aniline FABP4/5 inhibitor compound, 2-((2-((2,4-dichloro-5-isopropoxyphenyl)amino)-2-oxoethyl)thio)-2-methylpropanoic acid (compound “B104” as disclosed in WO2023043803A1) also was tested for genotoxic and cytotoxic side effects by Ames test. […]

[2] = tested on: Salmonella typhimurium tester strain TA100; assay: Ames test (Bacterial Reverse Mutation Test), TA100; type: cell-based
Method: as §1, §2
(§4) The aniline FABP4/5 inhibitor compound, 2-((2-((2,4-dichloro-5-isopropoxyphenyl)amino)-2-oxoethyl)thio)-2-methylpropanoic acid (compound “B104” as disclosed in WO2023043803A1) also was tested for genotoxic and cytotoxic side effects by Ames test. B104 was tested using the Salmonella typhimurium tester stains TA98, TA100, TA1535, and TA1537, both in the presence and absence of the hepatic enzyme S9, at 5 concentrations (1.5-64 μg/plate).

[3] = tested on: Salmonella typhimurium tester strain TA1537; assay: Ames test (Bacterial Reverse Mutation Test), TA1537; type: cell-based
Method: as §1, §2, §3

[4] = tested on: Salmonella typhimurium tester strains TA98, TA100, TA1535, TA1537 and Escherichia coli tester strain WP2 uvrA (pKM101); assay: Ames test, overall conclusion for the tested strains; type: cell-based; details: presence and absence of S9
Method: as §1, §2, §4

[5] = tested on: Salmonella typhimurium tester strain TA1535; assay: Ames test (Bacterial Reverse Mutation Test), TA1535; type: cell-based
Method: as §1, §2, §4

[6] = target: FABP3 (Homo sapiens (Human), UniProt P05413); assay: Fluorescence (ANS) competition binding assay, FABP3; details: ANS displacement
Method: (§5) This example illustrates a two-step fluorescence binding assay study used to determine the binding affinity of the various inhibitor compounds disclosed herein with the various FABPs: FABP3, FABP4, FABP5 and FABP7. Further secondary screening studies were carried out for compounds with high binding affinities toward the FABPs and based on their ability to activate the nuclear receptors PPARα, PPARγ, or PPARδ.
(§6) Binding assays for FABP3, FABP4, FABP5 and FABP7 were carried out by fluorescence titrations. His-tagged FABPs were bacterially expressed in E. coli, purified using Ni Sepharose beads, and the equilibrium dissociation constants (Kd) that characterize their interactions with different inhibitor compounds were measured by fluorescence competition assays. The method entails two steps as described in e.g., Lin, Q. et al., “Ligand selectivity of the peroxisome proliferator-activated receptor alpha,” Biochemistry 38, 185-190, doi:10.1021/bi9816094 [pii](1999). In the first step, Kd for the association of the protein with the fluorescent fatty acid probe ANS was measured. Protein (2 μM) was titrated with ANS from a concentrated solution in DMSO. Ligand binding was monitored by following the increase in the fluorescence of the ligand upon binding to the protein, and Kd for the association of ANS with the each FABP was computed from titration curves as described in e.g., Norris, A. W. & Li, E., “Fluorometric titration of the CRABPs,” Methods Mol Biol 89, 123-139 (1998)). In the second step, Kds for binding of non-fluorescent ligands were measured by monitoring their ability to displace ANS in the binding pocket of the protein. Each FABP was precomplexed with ANS at 1:1 molar ratio and titrated with the different compounds whose binding was reflected by a decrease in probe fluorescence. Kds were extracted from the EC50 of the competition curve and the measured Kd for ANS.

[7] = target: PPARα (Homo sapiens (Human), UniProt Q07869); assay: Transcriptional activation assay in COS7 cells, PPARα; type: cell-based; details: PPRE luciferase reporter, PD151 and PD152 at 10 μM
Method: (§7) COS-7 were cultured in 6-well plates and co-transfected with either a luciferase reporter driven by 3 copies of a PPRE and expression vector for either PPARδ, PPARα or PPARγ together with a vector harboring cDNA for β-galactosidase, serving as a transfection control. To test whether FABP4 or FABP5 mediate activation of their cognate receptors PPARγ and PPARδ, respectively, cells were also co-transfected with a plasmid harboring sequence of either FABP4 or FABP5. 18 h post-transfection, cells were placed in a serum-free medium and treated with agonist/compound. 18 h. later, cells were lysed, luciferase activity was assayed (Promega, WI, USA) and corrected for transfection efficiency by the activity of β-galactosidase.
(§8) Transcriptional activation assays were carried out utilizing COS7 cells as described above.

[8] = target: PPARγ (Homo sapiens (Human), UniProt P37231); assay: Transcriptional activation assay in COS7 cells, PPARγ; type: cell-based; details: PPRE luciferase reporter, PD151 and PD152 at 10 μM
Method: as §7, §8

[9] = target: FABP5 (Homo sapiens (Human), UniProt Q01469); assay: Fluorescence (ANS) competition binding assay, FABP5; details: ANS displacement
Method: as §5, §6

[10] = target: FABP4 (Homo sapiens (Human), UniProt P15090); assay: Fluorescence (ANS) competition binding assay, FABP4; details: ANS displacement
Method: as §5, §6

[11] = target: PPARδ (Homo sapiens (Human), UniProt Q03181); assay: Transcriptional activation assay in COS7 cells, PPARδ; type: cell-based; details: PPRE luciferase reporter, PD151 and PD152 at 10 μM
Method: as §7, §8

[12] = target: FABP7 (Homo sapiens (Human), UniProt O15540); assay: Fluorescence (ANS) competition binding assay, FABP7; details: ANS displacement
Method: as §5, §6

[13] = TA98, absence of S9, 1.5 μg/well
[14] = TA98, absence of S9, 10 μg/well
[15] = TA98, absence of S9, 25 μg/well
[16] = TA98, absence of S9, 64 μg/well
[17] = TA98, presence of S9, 1.5 μg/well
[18] = TA98, presence of S9, 4 μg/well
[19] = TA98, presence of S9, 10 μg/well
[20] = TA98, presence of S9, 25 μg/well
[21] = TA98, presence of S9, 64 μg/well
[22] = TA100, absence of S9, 1.5 μg/well
[23] = TA100, absence of S9, 4 μg/well
[24] = TA100, absence of S9, 10 μg/well
[25] = TA100, absence of S9, 25 μg/well
[26] = TA100, absence of S9, 64 μg/well
[27] = TA100, presence of S9, 1.5 μg/well
[28] = TA100, presence of S9, 4 μg/well
[29] = TA100, presence of S9, 10 μg/well
[30] = TA100, presence of S9, 25 μg/well
[31] = TA100, presence of S9, 64 μg/well
[32] = TA1537, absence of S9, 1.5 μg/well
[33] = TA1537, absence of S9, 4 μg/well
[34] = TA1537, absence of S9, 10 μg/well
[35] = TA1537, absence of S9, 25 μg/well
[36] = TA1537, absence of S9, 64 μg/well
[37] = TA1537, presence of S9, 1.5 μg/well
[38] = TA1537, presence of S9, 4 μg/well
[39] = TA1537, presence of S9, 10 μg/well
[40] = TA1537, presence of S9, 25 μg/well
[41] = TA1537, presence of S9, 64 μg/well
[42] = TA1535, absence of S9, 1.5 μg/well
[43] = TA1535, absence of S9, 4 μg/well
[44] = TA1535, absence of S9, 10 μg/well
[45] = TA1535, absence of S9, 25 μg/well
[46] = TA1535, absence of S9, 64 μg/well
[47] = TA1535, presence of S9, 1.5 μg/well
[48] = TA1535, presence of S9, 4 μg/well
[49] = TA1535, presence of S9, 10 μg/well
[50] = TA1535, presence of S9, 25 μg/well
[51] = TA1535, presence of S9, 64 μg/well

Chain of FABP5 (Q01469 whole entry, species assumed): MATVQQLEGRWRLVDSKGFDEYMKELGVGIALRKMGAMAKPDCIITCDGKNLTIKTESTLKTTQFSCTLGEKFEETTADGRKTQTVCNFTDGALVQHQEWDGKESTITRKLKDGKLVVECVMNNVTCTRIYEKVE
Chain of FABP7 (O15540 whole entry, species assumed): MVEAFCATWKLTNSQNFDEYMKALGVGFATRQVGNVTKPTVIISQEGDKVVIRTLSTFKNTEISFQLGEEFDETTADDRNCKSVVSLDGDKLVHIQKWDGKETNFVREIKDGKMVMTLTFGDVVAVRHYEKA
Chain of FABP3 (P05413 whole entry, species assumed): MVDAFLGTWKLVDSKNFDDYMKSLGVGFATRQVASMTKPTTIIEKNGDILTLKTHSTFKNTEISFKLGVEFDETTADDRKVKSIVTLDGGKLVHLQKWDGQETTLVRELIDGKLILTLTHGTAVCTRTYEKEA
Chain of PPARγ (P37231 whole entry, species assumed): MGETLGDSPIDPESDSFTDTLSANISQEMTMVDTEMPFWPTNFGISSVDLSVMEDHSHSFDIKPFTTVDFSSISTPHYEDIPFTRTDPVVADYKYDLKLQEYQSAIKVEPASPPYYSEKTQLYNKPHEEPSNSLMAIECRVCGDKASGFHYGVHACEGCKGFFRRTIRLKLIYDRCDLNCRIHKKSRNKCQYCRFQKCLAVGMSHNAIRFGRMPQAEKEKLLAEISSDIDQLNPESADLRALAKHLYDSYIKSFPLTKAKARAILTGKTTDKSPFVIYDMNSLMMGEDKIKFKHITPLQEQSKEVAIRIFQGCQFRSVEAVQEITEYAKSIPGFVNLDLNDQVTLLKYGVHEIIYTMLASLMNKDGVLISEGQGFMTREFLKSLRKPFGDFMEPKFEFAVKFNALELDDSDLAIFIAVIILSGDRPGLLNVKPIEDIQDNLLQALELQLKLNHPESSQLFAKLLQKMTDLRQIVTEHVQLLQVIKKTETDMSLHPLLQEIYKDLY
Chain of PPARδ (Q03181 whole entry, species assumed): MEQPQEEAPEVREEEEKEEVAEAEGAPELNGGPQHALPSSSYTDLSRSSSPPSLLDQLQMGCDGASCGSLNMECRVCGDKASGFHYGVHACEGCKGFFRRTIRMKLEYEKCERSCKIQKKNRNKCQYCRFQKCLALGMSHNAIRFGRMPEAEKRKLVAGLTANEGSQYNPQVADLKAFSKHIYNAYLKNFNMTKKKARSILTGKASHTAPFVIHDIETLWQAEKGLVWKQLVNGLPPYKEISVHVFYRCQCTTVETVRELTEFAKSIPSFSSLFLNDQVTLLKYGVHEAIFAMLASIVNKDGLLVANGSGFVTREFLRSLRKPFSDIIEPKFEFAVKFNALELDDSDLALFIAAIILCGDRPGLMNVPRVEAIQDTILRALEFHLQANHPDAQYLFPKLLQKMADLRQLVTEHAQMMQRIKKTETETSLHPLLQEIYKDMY
Chain of FABP4 (P15090 whole entry, species assumed): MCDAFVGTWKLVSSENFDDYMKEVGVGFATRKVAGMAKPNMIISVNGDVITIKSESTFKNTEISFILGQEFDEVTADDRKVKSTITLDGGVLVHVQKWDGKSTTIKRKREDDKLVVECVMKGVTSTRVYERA
Chain of PPARα (Q07869 whole entry, species assumed): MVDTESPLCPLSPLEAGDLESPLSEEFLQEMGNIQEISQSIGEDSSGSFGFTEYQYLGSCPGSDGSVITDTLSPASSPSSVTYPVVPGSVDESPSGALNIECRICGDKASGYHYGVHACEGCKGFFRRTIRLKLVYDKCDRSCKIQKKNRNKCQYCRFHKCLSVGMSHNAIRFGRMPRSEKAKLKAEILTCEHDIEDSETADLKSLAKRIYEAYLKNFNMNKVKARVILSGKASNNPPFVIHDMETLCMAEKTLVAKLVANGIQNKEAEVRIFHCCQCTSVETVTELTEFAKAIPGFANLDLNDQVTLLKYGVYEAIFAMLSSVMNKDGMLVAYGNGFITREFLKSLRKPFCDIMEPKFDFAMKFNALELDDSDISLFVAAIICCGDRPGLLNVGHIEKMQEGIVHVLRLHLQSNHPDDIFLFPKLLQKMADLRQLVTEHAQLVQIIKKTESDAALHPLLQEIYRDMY

## CC(C)Oc1cc(NC(=O)CSC(C)(C)C(=O)O)c(Cl)cc1Cl [Compound B104, 2-((2-((2,4-dichloro-5-isopropoxyphenyl)amino)-2-oxoethyl)thio)-2-methylpropanoic acid, reference compound]
[1]; [13]
  Fold increase: 1.26
  Mean number of revertants: 16
[1]; TA98, absence of S9, 4 μg/well
  Fold increase: 0.84
  Mean number of revertants: 10.67
[1]; [14]
  Fold increase: 0.97
  Mean number of revertants: 12.33
[1]; [15]
  Fold increase: 0
  Mean number of revertants: 0.33
[1]; [16]
  Fold increase: 0
  Mean number of revertants: 0.66
[1]; [17]
  Fold increase: 1.2
  Mean number of revertants: 20.67
[1]; [18]
  Fold increase: 2.3
  Mean number of revertants: 39
[1]; [19]
  Fold increase: 2.88
  Mean number of revertants: 49
[1]; [20]
  Fold increase: 2.7
  Mean number of revertants: 47.67
[1]; [21]
  Fold increase: 1.5
  Mean number of revertants: 26
[2]; [22]
  Fold increase: 0.8
  Mean number of revertants: 52
[2]; [23]
  Fold increase: 1.05
  Mean number of revertants: 68
[2]; [24]
  Fold increase: 0.86
  Mean number of revertants: 56
[2]; [25]
  Fold increase: 0
  Mean number of revertants: 0
[2]; [26]
  Fold increase: 0
  Mean number of revertants: 0.67
[2]; [27]
  Fold increase: 3
  Mean number of revertants: 387
[2]; [28]
  Fold increase: 5.18
  Mean number of revertants: 658
[2]; [29]
  Fold increase: 6.68
  Mean number of revertants: 849
[2]; [30]
  Fold increase: 6.55
  Mean number of revertants: 833
[2]; [31]
  Fold increase: 4.44
  Mean number of revertants: 564.5
[3]; [32]
  Fold increase: 0.43
  Mean number of revertants: 2.0
[3]; [33]
  Fold increase: 0.32
  Mean number of revertants: 1.5
[3]; [34]
  Fold increase: 0.21
  Mean number of revertants: 1.0
[3]; [35]
  Fold increase: 0
  Mean number of revertants: 0
[3]; [36]
  Fold increase: 0
  Mean number of revertants: 0
[3]; [37]
  Fold increase: 1.71
  Mean number of revertants: 4.0
[3]; [38]
  Fold increase: 2.36
  Mean number of revertants: 5.5
[3]; [39]
  Fold increase: 1.29
  Mean number of revertants: 3.0
[3]; [40]
  Fold increase: 1.07
  Mean number of revertants: 2.5
[3]; [41]
  Fold increase: 2.14
  Mean number of revertants: 5.0
[4]
  Cytotoxicity to the tested strains: some level of cytotoxicity
  Mutagenicity in the Ames test: positive mutagenic responses
[5]; [42]
  Fold increase: 1.20
  Mean number of revertants: 4
[5]; [43]
  Fold increase: 2.20
  Mean number of revertants: 7.33
[5]; [44]
  Fold increase: 1.40
  Mean number of revertants: 4.67
[5]; [45]
  Fold increase: 0.20
  Mean number of revertants: 0.67
[5]; [46]
  Fold increase: 0
  Mean number of revertants: 0
[5]; [47]
  Fold increase: 0.89
  Mean number of revertants: 5.67
[5]; [48]
  Fold increase: 1
  Mean number of revertants: 6.33
[5]; [49]
  Fold increase: 1.06
  Mean number of revertants: 6.67
[5]; [50]
  Fold increase: 1.68
  Mean number of revertants: 10.67
[5]; [51]
  Fold increase: 1
  Mean number of revertants: 6.33

## CC(C)Oc1ccc(Cl)c(NC(=O)CSCC(=O)O)n1 [PD152.2, 2-((2-((3-chloro-6-isopropoxypyridin-2-yl)amino)-2-oxoethyl)thio)acetic acid]
[6]
  Kd: 125 nM
[7]
  Activation of transcription by PPARα: None of these tested compounds activated
[8]
  Activation of transcription by PPARγ: None of these tested compounds activated
[9]
  Kd: 141 nM
[10]
  Kd: 72 nM
[11]
  Activation of transcription by PPARδ: None of these tested compounds activated
[12]
  Kd: 1000 nM
